Experimental data from patent US20260317356A1, “SMALL MOLECULE MODULATORS OF OGG1” (AZKARRA THERAPEUTICS, INC., priority 2023, published 2026).

Legend:
hOGG1 = hOGG1 (Homo sapiens, UniProt O15527); experiment: Surface Plasma Resonance with hOGG1 to measure compound affinity (OGG1 SPR Kd); type: binding; set-up: Protein His-hOGG1 (12-323) was prepared; settings: Biacore T-200, immobilized his-tagged OGG1; pH 7.4; 2% DMSO; single-cycle kinetics
Outline: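 His-tagged recombinant OGG1 was captured on an NTA chip via Ni²⁺ (~2500 RU final). Single-cycle kinetics used five 3-fold compound concentrations (top 750 or 1500 nM) in 20 mM HEPES pH 7.4, 150 mM NaCl, 0.5 mM TCEP, 0.005% Tween-20, 2% DMSO; 45 s contact, 600 s dissociation. Kd came from steady-state and 1:1 kinetic fits.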

nLucOGG1 in HeLa cells = target: T1, nLucOGG1 in HeLa cells (Homo sapiens, UniProt O15527); experiment: Cellular Thermal Shift Assay to measure compound affinity for nLucOGG1 in HeLa cells (CETSA DTm); type: cell-based; settings: 10 μM compound, 37° C. 60 min, Tm vs DMSO control
T1 construct: thermal shift read by NanoGlo luminescence
Outline: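 HeLa cells transiently nucleofected with N-terminal nLuc-OGG1a, used 48 h later; 25 k cells/well incubated with 10 μM compound or DMSO vehicle 60 min at 37° C, then heated 3 min across a 12-point 37-70° C gradient. NanoGlo luminescence normalized to 37° C, Boltzmann sigmoidal fit gives Tm; delta Tm relative to vehicle.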

hOGG1, sequence (O15527 12-323): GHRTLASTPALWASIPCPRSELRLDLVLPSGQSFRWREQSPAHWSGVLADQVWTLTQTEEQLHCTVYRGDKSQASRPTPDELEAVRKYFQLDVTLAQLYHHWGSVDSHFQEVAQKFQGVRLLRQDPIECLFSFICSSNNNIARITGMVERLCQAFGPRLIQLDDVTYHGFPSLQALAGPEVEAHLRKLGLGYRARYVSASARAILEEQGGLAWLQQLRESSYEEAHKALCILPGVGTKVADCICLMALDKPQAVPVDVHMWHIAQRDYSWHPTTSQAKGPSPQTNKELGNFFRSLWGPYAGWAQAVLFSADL
T1 sequence (O15527 whole entry): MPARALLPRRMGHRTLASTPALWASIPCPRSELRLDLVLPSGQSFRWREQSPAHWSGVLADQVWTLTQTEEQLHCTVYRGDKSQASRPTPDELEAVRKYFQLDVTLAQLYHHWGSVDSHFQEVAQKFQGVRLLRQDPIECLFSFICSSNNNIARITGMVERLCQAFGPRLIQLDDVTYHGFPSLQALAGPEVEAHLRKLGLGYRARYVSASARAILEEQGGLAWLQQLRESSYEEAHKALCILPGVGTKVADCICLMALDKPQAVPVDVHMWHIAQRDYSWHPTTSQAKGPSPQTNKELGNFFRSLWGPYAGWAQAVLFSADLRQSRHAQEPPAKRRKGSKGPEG

SMILES | Kd (hOGG1) | ΔTm at 10 µM (nLucOGG1 in HeLa cells)
COc1cc(NC(=O)[C@H]2CC[C@@H](N3Cc4c(C)ccc(CN)c4NC3=O)CC2)ccc1C [Example 58, (1s,4s)-4-(8-(aminomethyl)-5-methyl-2-oxo-1,2-dihydroquinazolin-3(4H)-yl)-N-(3-methoxy-4-methylphenyl)cyclohexanecarboxamide] | 10 to 100 nM | 8 to 10 °C
COc1ccc(NC(=O)[C@]2(C)CC[C@H](N3Cc4c(C)ccc(OC)c4NC3=O)CC2)cc1Cl (single isomer, unassigned) [Example 7, (1s,4s)-N-(3-chloro-4-methoxyphenyl)-4-(8-methoxy-5-methyl-2-oxo-1,2-dihydroquinazolin-3(4H)-yl)-1-methylcyclohexanecarboxamide] | 10 to 100 nM | 8 to 10 °C
COc1cc(NC(=O)[C@H]2CC[C@@H](N3Cc4c(C)ccc(C#N)c4NC3=O)CC2)ccc1C [Example 59, (1s,4s)-4-(8-cyano-5-methyl-2-oxo-1,2-dihydroquinazolin-3(4H)-yl)-N-(3-methoxy-4-methylphenyl)cyclohexanecarboxamide] | 10 to 100 nM | 8 to 10 °C
COc1cc(NC(=O)[C@H]2CC[C@@H](N3Cc4c(C)cc(OCCN5CC(F)(F)C5)cc4C3=O)CC2)ccc1C [Example 255, (1s,4s)-4-(6-(2-(3,3-Difluoroazetidin-1-yl)ethoxy)-4-methyl-1-oxoisoindolin-2-yl)-N-(3-methoxy-4-methylphenyl)cyclohexanecarboxamide] | 10 to 100 nM | 6 to 8 °C
COc1cc(NC(=O)[C@H]2CC[C@@H](N3Cc4c(C)ccc(C#N)c4C3=O)CC2)ccc1C [Example 143, (1s,4s)-4-(7-Cyano-4-methyl-1-oxoisoindolin-2-yl)-N-(3-methoxy-4-methylphenyl)cyclohexanecarboxamide] | 10 to 100 nM | 6 to 8 °C
COc1cc(NC(=O)[C@H]2CC[C@@H](N3Cc4c(C)cnc(CNC(C)=O)c4NC3=O)CC2)ccc1C [Example 19, (1s,4s)-4-(8-(Acetamidomethyl)-5-methyl-2-oxo-1,2-dihydropyrido[3,4-d]pyrimidin-3(4H)-yl)-N-(3-methoxy-4-methylphenyl)cyclohexanecarboxamide] | ≤ 10 nM | 8 to 10 °C
